Values after ≈ are worked out from the molar mass of the structure shown.
Assays:
[1] = target: acetylcholinesterase (AChE) (Homo sapiens, UniProt P22303); test: biochemical; conditions: mean ± SE, n = 3
Description: The absorbance was measured at 540 nm using a UV-Visible spectrophotometer. The IC50 of each tested sample was calculated by plotting a curve using a series of sample concentrations against the percent of α-amylase inhibition.
The inhibition percentage (%) of the α-glucosidase enzyme was determined using the […]
standard drug. Five μL of the α-glucosidase solution (10 units mL−1, 0.1moll−1 potassium phosphate buffer, pH 6.8) was pre -mixed with 10 μL of the sample solution at different concentrations (in 10% DMSO) i n 620 μL of 0.1 moll−1 potassium […]
phosphate buffer (pH 6.8). […]
phenyl glucopyranoside (pNPG, 10 mmoll−1) as a substrate was added to the mixture […]
minutes, followed by the addition of 650 μL of 1 moll−1 Na2CO3 solution to terminate the reaction. The amount of released product (p-nitro phenol) was measured at 410 […]
activity. The inhibition assay was performed in triplicate for all tests. The IC50 of each tested sample was calculated by plotting a curve using a series of sample concentrations against the percent of α-glucosidase inhibition.
3.4. Anti-Alzheimer's activity
In this study, we assessed the inhibition percentage of the acetylcholinesterase (AChE) enzyme using Ellman's method with donepezil as the standard drug. […] After incubation, 5 µL of AChE at a concentration of 0.3 U/mL was added to start the reaction, and the absorbance […]

[2] = tested on: caspase-3 in BJ-1 cells; test: Caspase-3 ELISA in treated BJ-1 cells; assay type: cell-based, human; conditions: BJ-1 cells treated at the IC50 value, mean ± SE, n = 3
Description: (§1) Following the treatment of HepG-2, Caco-2, A549, and BJ-1 cells with the SB-CuO-NPs at their respective IC50 values, as illustrated in Figure 9 and detailed in Table 5, an assessment of the activities of the caspase-3 and Bcl-2 enzymes was conducted in the treated cells. […] This mechanism ultimately triggers apoptosis. Additionally, the increased activity of caspase-3 results in a decrease in the expression of cyclin D1 and CDK-2 mRNA, thereby promoting the arrest of the G1 phase of the cell cycle. Othman et al. further noted that the biosynthesized M-NPs facilitate apoptosis by inhibiting the expression of the PI3K/AKT and Ras/Raf/ERK protein signaling pathways.
(§2) Invitrogen Corporation, following the manufacturer's instructions.

[3] = tested on: Bcl-2 in BJ-1 cells; test: Bcl-2 ELISA in treated BJ-1 cells; assay type: cell-based, human; conditions: BJ-1 cells treated at the IC50 value, mean ± SE, n = 3
Description: as §1, §2

[4] = tested on: human lung cancer (A549) cell line; test: MTT cytotoxicity, A549
[5] = tested on: human hepatocellular carcinoma (HepG-2) cell line; test: MTT cytotoxicity, HepG-2

acetylcholinesterase (AChE), sequence (P22303 32-614, species assumed): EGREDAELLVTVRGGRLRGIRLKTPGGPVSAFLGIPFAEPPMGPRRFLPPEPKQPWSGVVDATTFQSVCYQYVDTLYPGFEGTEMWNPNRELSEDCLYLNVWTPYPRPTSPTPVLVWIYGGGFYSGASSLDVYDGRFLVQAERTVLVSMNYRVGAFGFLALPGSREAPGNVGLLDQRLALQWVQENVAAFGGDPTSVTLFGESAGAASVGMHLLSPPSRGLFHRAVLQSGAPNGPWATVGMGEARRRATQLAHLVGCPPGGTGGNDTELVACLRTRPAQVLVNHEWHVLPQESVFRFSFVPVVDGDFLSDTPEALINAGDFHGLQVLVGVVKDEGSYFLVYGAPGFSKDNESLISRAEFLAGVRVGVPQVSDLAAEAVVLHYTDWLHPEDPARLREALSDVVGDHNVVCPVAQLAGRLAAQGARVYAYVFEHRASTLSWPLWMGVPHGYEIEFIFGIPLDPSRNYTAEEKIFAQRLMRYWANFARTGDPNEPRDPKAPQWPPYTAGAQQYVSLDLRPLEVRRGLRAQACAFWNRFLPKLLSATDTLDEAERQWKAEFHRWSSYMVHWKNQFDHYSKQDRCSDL

## Cc1nn(-c2ccccc2)c(Cl)c1C=NN=C1C(=O)Nc2ccccc21 [SB]
[1]; at 100 µg/mL, read-out: Acetylcholinesterase (AChE) Inhib. (%)
  inhibition at 100 µg/mL: 32.64 ± 0.16%
[1]
  IC50: 19.2 µM
[2]
  Caspase-3: 109.07 ± 0.18 pg/mL
[3]
  Bcl-2: 4.98 ± 0.03 ng/mL
[4]; A549
  viability at 31.13 µg/mL: 86.2%
  viability at 62.5 µg/mL: 70.3%
  viability at 125 µg/mL: 44.8%
  viability at 250 µg/mL: 38.5%
  viability at 500 µg/mL: 18.8%
[4]; A549, 48 h, read-out: Median Inhibitory Concentration (IC50) A549
  IC50: 110 ± 2.49 µg/mL (≈ 303 µM)
[5]; HepG2
  viability at 31.13 µg/mL: 87.6%
  viability at 62.5 µg/mL: 74.6%
  viability at 125 µg/mL: 53.1%
  viability at 250 µg/mL: 40.2%
  viability at 500 µg/mL: 19.3%
[5]; HepG2, 48 h, read-out: Median Inhibitory Concentration (IC50) HepG-2
  IC50: 127 ± 3.13 µg/mL (≈ 350 µM)

Source: publication PMC11859031, “Assessment of the In Vitro Biological Activities of Schiff Base-Synthesized Copper Oxide Nanoparticles as an Anti-Diabetic, Anti-Alzheimer, and Anti-Cancer Agent” (Pharmaceutics, 2025)
